Tests used:
tubulin = test: Tubulin polymerization assay in the absence of GTP (optical density at 350 nm); format: biochemical; conditions: tubulin monomer, versus DMSO control
Text: To test the activity of the trans-cyclooctene taxol analog, we tested for the well known ability of Taxol® to polymerize tubulin in the absence of GTP (Shelanski et al., 1973, Proc Natl Acad Sci USA, 70, 765-8; Schiff and Horwitz, 1981, Biochemistry, 20, 3247-52). Optical density measurements at 350 nm (FIG. 6B) were used to determine the degree of tubulin polymerization after exposure of tubulin monomer to Taxol®, trans-cyclooctene taxol, and a DMSO control. […] Taxol trans-cyclooctene induced tubule bundles could be visualized by subsequent staining with tetrazine fluorophore probes such as tetrazine-BODIPY FL yielding brightly fluorescent tubule structures that could be imaged by fluorescent microscopy (FIG. 6c).

PtK2 rat kidney cells = test: Live cell labeling and confocal imaging of trans-cyclooctene taxol with tetrazine probes; format: cell-based, rat kangaroo; conditions: for staining of intracellular structures by confocal microscopy: 1 μM trans-cyclooctene taxol 1 hour 37° C., wash, then 1 μM tetrazine probe 20 minutes room temperature
Method: For live cell studies, PtK2 […] cells were incubated in cell media containing 1 μM trans-cyclooctene taxol for 1 hour at 37° C. After washing with media three times, the cells were exposed to media containing 1 μM tetrazine-BODIPY FL for 20 minutes at room temperature. The cells were then washed and imaged on a confocal microscope. […] Taxol® is known to bind the microtubular networks of cells and there have been several reports of fluorescent taxol derivatives that can be used to image microtubular networks (Evangelio et al., 1998, Cell Motil Cytoskeleton, 39, 73-90; Guy et al., 1996, Chem Biol, 3, 1021-31; Souto et al., 1995, Angew. Chem. Int. Ed., 34, 2710-2712). In addition to tubular structures, the perinuclear region was stained. This staining is due to nonspecific uptake of the taxol analog by intracellular membranes such as the endoplasmic reticulum and Golgi.

[1] = test system: trans-cyclooctene bound to antibody; test: Kinetic measurements of tetrazine cycloaddition to surface-absorbed trans-cyclooctene modified antibody; format: physicochemical; conditions: PBS at 37° C.; 375, 750 and 1000 nM tetrazine; slope of pseudo first order rate constants versus concentration
Method: trans-cyclooctene modified antibody was physically absorbed onto polystyrene by immersing the surfaces in a 0.1 mg/mL solution of antibody in PBS for 3 hours. After numerous washes with PBS, the surface was exposed to 750 nM tetrazine VT680 in PBS at 37° C. After 5 minutes, the tetrazine solution was removed and the surface washed 3 times with PBS. The fluorescence due to the VT680 dye was measured on a fluorescence plate reader (Tecan Safire 2) and corrected for background fluorescence. The surface was again exposed to the tetrazine solution and the entire process repeated at 10, 15, 30, and 60 minutes. The fluorescence measurements were plotted versus time, fitted to a first order exponential growth curve and the pseudo first order rate constant determined The entire experiment was repeated using two different concentrations of tetrazine (375 nM and 1000 nM) and the pseudo first order rate constants from all three experiments were plotted versus concentration, fitted to a straight line; the slope of the line was 6000±200 M−1sec−1 and was reported at the second order rate constant for the reaction between tetrazine VT680 and trans-cyclooctene bound to antibody.

EGFR on A549 cells = test: Pretargeted live cell labeling with trans-cyclooctene cetuximab and tetrazine-VT680, confocal microscopy; format: cell-based, human
Method: The human lung adenocarcinoma epithelial cell line A549 was selected for all experiments due to its mid-level over-expression of EGFR. The cell line was maintained in a standard ATCC formulated F-12K media supplemented with 10% fetal bovine serum and 5% penicillin/streptomycin.
Cells were grown on break away glass chamber slides and washed six times after administering either imaging agent. A multichannel upright laser-scanning confocal microscope (FV1000; Olympus) was used to image live cells with a 60× water immersion objective lens. Image collection and fluorophore excitations with lasers at 488 nm (EGFP), 543 nm (AF555), and 633 nm (VT680) were done serially to avoid cross talk between channels. Data were acquired with Fluoview software (version 4.3; Olympus) and image stacks were processed and analyzed with ImageJ software (version 1.41, Bethesda Md.).
Direct labeling of the antibodies with AF555 was monitored in the red channel.

[2] = test system: Her2/neu growth factor receptors on SKBR-3 human mammary carcinoma cells; test: Live cell labeling with norbornene-modified trastuzumab and tetrazine-VT680, fluorescence microscopy; format: cell-based
Text: Norbornene carboxylic acid ((1S,2S,4S)-bicyclo[2.2.1]hept-5-en-2-yl acetic acid) was stirred for three hours with 1.1 equivalents of disuccinimidyl carbonate in acetontrile using 1 equivalent of pyridine as base. After reaction, solvent and base were removed by rotary evaporation and the crude norbornene succinimidyl ester with N-hydroxysuccinimide side product was recovered. Commercially purchased humanized anti-HER2/neu antibody trastuzumab (Genentech, San Francisco, Calif.) in 0.1M sodium bicarbonate buffer (pH 8.2) was incubated for three hours at room temperature with a 5 molar excess of 5-(and-6)-carboxytetramethylrhodamine, succinimidyl ester (Invitrogen) and a 30 molar excess of crude norbornene succinimidyl ester. The antibody was then isolated and washed by centrifuge purification and stored in PBS buffer. Control antibody was modified in an identical manner but excluding the norbornene NHS.
SKBR-3 human mammary carcinoma cell lines were maintained in complete McCoy's medium. Cells were incubated at 37° C. with 200 nM modified trastuzumab for 30 minutes and then washed twice with 10% fetal bovine serum (FBS) in Hanks balanced salt solution (HBSS). Tetrazine labeling was performed by incubating the cells for 30 minutes at 37° C. in 10% FBS/HBSS containing 50 μM of tetrazine-VT680. Cells were then washed twice with 10% FBS/HBSS and imaged with by fluorescence microscopy.

With `CC(=O)O[C@H]1C(=O)[C@@]2(C)[C@H]([C@H](OC(=O)c3ccccc3)[C@]3(O)C[C@H](OC(=O)[C@H](O)[C@@H](NC(=O)c4ccccc4)c4ccccc4)C(C)=C1C3(C)C)[C@]1(OC(C)=O)CO[C@@H]1C[C@@H]2O` [Taxol®, paclitaxel, reference compound] the “degree of tubulin polymerization (optical density at 350 nm)” value (tubulin) was “induced polymerization”.
With “3-(p-Benzylamino)-tetrazine-VT680 Conjugate” the “staining of intracellular structures by confocal microscopy” value (“staining of intracellular structures” below) (PtK2 rat kidney cells) was “showed intracellular structures reflecting microtubule networks”, the “staining of intracellular structures” value (PtK2 rat kidney cells; listed as sulfonated Vivo-Tag 680 tetrazine) was “very little staining and an absence of tubular structures” and the “second order rate constant” value [1] was 6000 ± 200 M⁻¹ s⁻¹. The “colocalization of NIR (VT680) signal with AF555-labeled antibody” value (EGFR on A549 cells; A549 cells pretargeted with AF555-labeled trans-cyclooctene cetuximab, then tetrazine-VT680) was “excellent colocalization of the AF555 and VT680 signals with little background fluorescence” and the “NIR fluorescence in control experiments” value (EGFR on A549 cells; unlabeled cetuximab and tetrazine-VT680, or trans-cyclooctene-cetuximab and unlabeled VT680) was “no NIR fluorescence”.
In the case of `CC(=O)OC1C(=O)C2(C)C(OC(=O)CCNC(=O)OC3CCC=CCCC3)CC3OCC3(OC(C)=O)C2C(OC(=O)c2ccccc2)C2(O)CC(OC(=O)C(O)C(NC(=O)c3ccccc3)c3ccccc3)C(C)=C1C2(C)C` (stereo not drawn) [trans-cyclooctene taxol], the “degree of tubulin polymerization (optical density at 350 nm)” value (tubulin) is reported as “induced polymerization” and the “staining of intracellular structures” value (PtK2 rat kidney cells) is reported as “tubular structures were clearly stained”.
With “5-(4-(1,2,4,5-Tetrazin-3-yl)benzylamino)-5-oxopentanoic Acid [Example 3]” the “labeling of cells in rhodamine and NIR fluorescence channels” value ([2]; 200 nM norbornene- and rhodamine-modified trastuzumab 30 minutes, then 50 μM tetrazine-VT680 30 minutes 37° C. in 10% FBS/HBSS) was “Significant labeling, which colocalizes” and the “NIR labeling with control antibody” value ([2]; control antibody containing rhodamine but not norbornene) was “no NIR labeling”.
`Cc1cc(C)n2c1C=C1C=CC(CCC(=O)NCc3ccc(-c4nncnn4)cc3)=[N+]1[B-]2(F)F` [tetrazine-BODIPY FL] was tested, and the “staining of intracellular structures” value (PtK2 rat kidney cells) was “tubular structures were clearly stained” and the “fluorescent background in control experiments” value (PtK2 rat kidney cells; tetrazine-BODIPY FL alone or with unmodified taxol) was “minimal fluorescent background”.

Source: patent US8900549B2, “Compositions and methods for delivering a substance to a biological target” (The General Hospital Corporation, priority 2008, dated 2014)
